Source: ChEMBL document CHEMBL1201862, “PubChem BioAssay data set” (2004)
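Protocol summary: plate cells (96-well), add compound at 5 concentrations, incubate 48 h, interpolate endpoints linearly. At the GI50, growth is halved.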 Activity calls are given as the source filed them. Rule as the data show it: active = GI50 up to about 1.1 µM and inactive = higher. Numbered stars: 1 amine (or outer) side, 2 acyl side, 3 side chain; on linkers, the order of the positions; unused ones are H or OH. Bridge positions count the residues as written; N and C are the ends. Square brackets hold non-standard residues; d marks the D form. Peptide text beside a SMILES is read from it. X58 = COc1c(N[*:1])cccc1C(=O)O[C@H](C(=O)[C@H](C)C(=O)[*:2])C(C)C; X57 = CC(C)C[C@H](C(=O)[*:2])C(C)C(=O)C1CCCN1[*:1]; NMeY = CN[C@@H](Cc1ccc(O)cc1)C(=O)O; Lac = C[C@H](O)C(=O)O

Columns and labels:
Assay in all cases: DTP human tumour cell line panel, 48 h
[1] = test system: COLO 205
[2] = test system: RPMI-8226
[3] = test system: SNB-75
[4] = test system: MCF7
[5] = test system: SF-539
[6] = test system: HCT-116
[7] = test system: TK-10
[8] = test system: BT-549
[9] = test system: DU-145
[10] = test system: CAKI-1
[11] = test system: HCT-15
[12] = test system: EKVX
[13] = test system: MOLT-4
[14] = test system: SK-OV-3
[15] = test system: MDA-MB-231
[16] = test system: SK-MEL-28
[17] = test system: U-251
[18] = test system: M14
[19] = test system: SN12C

SMILES	GI50 [1]	GI50 [2]	GI50 [3]	GI50 [4]	GI50 [5]	GI50 [6]	GI50 [7]	GI50 [8]	GI50 [9]	GI50 [10]	GI50 [11]	GI50 [12]	GI50 [13]	GI50 [14]	GI50 [15]	GI50 [16]	GI50 [17]	GI50 [18]	GI50 [19]
COC(C)C(O)(C(=O)OCC1=CCN2CCC(O)C12)C(C)(C)O (stereo unspecified)	> 100 µM (inactive)	> 100 µM (inactive)	> 100 µM (inactive)	> 100 µM (inactive)	> 100 µM (inactive)	> 100 µM (inactive)	> 100 µM (inactive)	> 100 µM (inactive)	> 100 µM (inactive)	> 100 µM (inactive)	> 100 µM	> 100 µM (inactive)	> 100 µM (inactive)	> 100 µM (inactive)	> 100 µM (inactive)	> 100 µM (inactive)	> 100 µM (inactive)	> 100 µM (inactive)	> 100 µM (inactive)
O=C(O)/C=C(/C(=O)O)C12CCN3CC4=CCOC5CC(=O)NC1C5C4CC32 (stereo unspecified)	> 100 µM (inactive)	> 100 µM (inactive)	> 100 µM (inactive)	> 100 µM (inactive)	> 100 µM (inactive)	> 100 µM (inactive)	> 100 µM (inactive)	> 100 µM (inactive)	> 100 µM (inactive)	> 100 µM (inactive)	> 100 µM	> 100 µM (inactive)	> 100 µM (inactive)	> 100 µM (inactive)	> 100 µM (inactive)	> 100 µM (inactive)	> 100 µM (inactive)	> 100 µM (inactive)	> 100 µM (inactive)
CCOC(=O)c1cccc(/N=N/Nc2cccc(C(=O)OCC)c2)c1	> 100 µM (inactive)	> 100 µM (inactive)	14.6 µM (inactive)	61.7 µM (inactive)	14.2 µM (inactive)	31.9 µM (inactive)	27.5 µM (inactive)	> 100 µM (inactive)	> 100 µM (inactive)	42 µM (inactive)	> 100 µM	57.8 µM (inactive)	> 100 µM (inactive)	28.7 µM (inactive)	17.8 µM (inactive)	> 100 µM (inactive)	20.1 µM (inactive)	> 100 µM (inactive)	30.1 µM (inactive)
N=C(N)N/N=C(\c1ccc(F)cc1)c1ccc(C(F)(F)F)cc1	0.294 µM (active)	0.376 µM (active)	1.75 µM (inactive)	0.242 µM (active)	0.27 µM (active)	0.104 µM (active)	1.66 µM (inactive)	0.593 µM (active)	0.538 µM (active)	0.451 µM (active)	0.294 µM	0.505 µM (active)	0.358 µM (active)	0.817 µM (active)	0.33 µM (active)	0.94 µM (active)	0.473 µM (active)	0.298 µM (active)	0.64 µM (active)
COc1cc(C)cc2c(-c3c(O)cc(O)c4c3C[C@H](C)N[C@H]4C)cc(-c3cc(-c4c(O)cc(O)c5c4C[C@H](C)N[C@H]5C)c4cc(C)cc(OC)c4c3O)c(O)c12	> 100 µM (inactive)	83.4 µM (inactive)	> 100 µM (inactive)	> 100 µM (inactive)	> 100 µM (inactive)	54.1 µM (inactive)	> 100 µM (inactive)	> 100 µM (inactive)	> 100 µM (inactive)	> 100 µM (inactive)	> 100 µM	> 100 µM (inactive)	> 100 µM (inactive)	> 100 µM (inactive)	> 100 µM (inactive)	> 100 µM (inactive)	> 100 µM (inactive)	> 100 µM (inactive)	> 100 µM (inactive)
COc1cc2c(cc1OC)C(=O)/C(=C/c1ccccc1)C2	> 100 µM (inactive)	19.1 µM (inactive)	> 39.4 µM (inactive)	> 71.3 µM (inactive)	43.6 µM (inactive)	48 µM (inactive)	> 100 µM (inactive)	> 100 µM (inactive)	> 94.2 µM (inactive)	> 100 µM (inactive)	> 82 µM	> 100 µM (inactive)	16.3 µM (inactive)	> 100 µM (inactive)	> 100 µM (inactive)	> 100 µM (inactive)	> 100 µM (inactive)	> 62.5 µM (inactive)	> 100 µM (inactive)
O=c1[nH]nc(-c2ccccc2)n1/N=C\CC/C=N\n1c(-c2ccccc2)n[nH]c1=O	55 µM (inactive)	25.3 µM (inactive)	> 69.3 µM (inactive)	26.7 µM (inactive)	27.4 µM (inactive)	24.2 µM (inactive)	> 100 µM (inactive)	19.2 µM (inactive)	> 59.2 µM (inactive)	49 µM (inactive)	21.4 µM	44.3 µM (inactive)	20.1 µM (inactive)	28.6 µM (inactive)	29.2 µM (inactive)	23 µM (inactive)	40.6 µM (inactive)	20.6 µM (inactive)	20.3 µM (inactive)
C=Cn1c([N+](=O)[O-])cnc1/C=C/c1ccc(C(=O)OCCN2CCOCC2)cc1	> 100 µM (inactive)	12 µM (inactive)	> 100 µM (inactive)	> 100 µM (inactive)	> 100 µM (inactive)	> 100 µM (inactive)	> 100 µM (inactive)	> 100 µM (inactive)	> 100 µM (inactive)	> 100 µM (inactive)	> 100 µM	> 100 µM (inactive)	38 µM (inactive)	> 100 µM (inactive)	> 100 µM (inactive)	> 100 µM (inactive)	> 100 µM (inactive)	> 100 µM (inactive)	> 100 µM (inactive)
CCOC(=O)c1c(-c2ccccc2)c(OC)cn1C	> 10 µM (inactive)	> 10 µM (inactive)	> 10 µM (inactive)	> 10 µM (inactive)	> 10 µM (inactive)	> 10 µM (inactive)	> 10 µM (inactive)	> 10 µM (inactive)	> 10 µM (inactive)	> 10 µM (inactive)	> 10 µM	> 10 µM (inactive)	> 10 µM (inactive)	> 10 µM (inactive)	> 10 µM (inactive)	> 10 µM (inactive)	> 10 µM (inactive)	> 10 µM (inactive)	> 10 µM (inactive)
OB(O)c1ccccc1C#Cc1ccccc1B(O)O	16.2 µM (inactive)	20.6 µM (inactive)	19 µM (inactive)	3.13 µM (inactive)	18.4 µM (inactive)	18.1 µM (inactive)	17.1 µM (inactive)	12.2 µM (inactive)	15.9 µM (inactive)	3.09 µM (inactive)	20.9 µM	16.9 µM (inactive)	40.5 µM (inactive)	24 µM (inactive)	20.8 µM (inactive)	35.6 µM (inactive)	19.2 µM (inactive)	22.7 µM (inactive)	23.6 µM (inactive)
C/C=C1\CN2CCC34c5ccccc5N(C)C35OCC4(C(=O)OC)C1CC25 (stereo unspecified)	16 µM (inactive)	24.7 µM (inactive)	99.5 µM (inactive)	40.7 µM (inactive)	83 µM (inactive)	36.6 µM (inactive)	> 100 µM (inactive)	34.3 µM (inactive)	74.6 µM (inactive)	99.3 µM (inactive)	23.1 µM	77.1 µM (inactive)	45.7 µM (inactive)	> 100 µM (inactive)	> 100 µM (inactive)	27.7 µM (inactive)	93.3 µM (inactive)	21.4 µM (inactive)	75.7 µM (inactive)
C=C1C(=O)O[C@@H]2[C@H]1C[C@@H](O)[C@H](C)[C@@](O)(C(=O)/C=C/C)[C@H]2OC(=O)C(C)CC (stereo partly specified)	1.75 µM (inactive)	1.72 µM (inactive)	22.6 µM (inactive)	4.81 µM (inactive)	7.33 µM (inactive)	1.84 µM (inactive)	3.37 µM (inactive)	5.45 µM (inactive)	4.27 µM (inactive)	1.26 µM (inactive)	2.44 µM	8.57 µM (inactive)	2.44 µM (inactive)	42.2 µM (inactive)	5.79 µM (inactive)	7.85 µM (inactive)	11.2 µM (inactive)	3.3 µM (inactive)	2.64 µM (inactive)
COC(=O)C1=CC2CCCC1(O)C(C(C)=O)C2 (stereo unspecified)	39.8 µM (inactive)	25.1 µM (inactive)	24.4 µM (inactive)	> 79.6 µM (inactive)	11.6 µM (inactive)	62.1 µM (inactive)	> 100 µM (inactive)	> 95.7 µM (inactive)	> 69.7 µM (inactive)	> 100 µM (inactive)	> 66.5 µM	52.7 µM (inactive)	21.1 µM (inactive)	> 100 µM (inactive)	46.6 µM (inactive)	> 100 µM (inactive)	63.2 µM (inactive)	> 100 µM (inactive)	> 100 µM (inactive)
COc1ccc(C[C@H]2C(=O)O[C@H](C)[C@H](NC(=O)[C@@H](CC(C)C)C(C)C(=O)C3CCCN3C(=O)[C@H](C)O)C(=O)Nc3cccc(c3OC)C(=O)O[C@@H](C(C)C)C(=O)[C@H](C)C(=O)N[C@@H](CC(C)C)C(=O)N3CCC[C@H]3C(=O)N2C)cc1 (stereo partly specified) (H-[Lac][X57]T[X58]LP[NMeY](Me); ester 3-C)	9.29 µM (inactive)	6.53 µM (inactive)	2.81 µM (inactive)	> 12.5 µM (inactive)	> 12.5 µM (inactive)	6.12 µM (inactive)	> 12.5 µM (inactive)	> 12.5 µM (inactive)	> 12.5 µM (inactive)	> 12.5 µM (inactive)	> 12.5 µM	> 12.5 µM (inactive)	1.91 µM (inactive)	> 12.5 µM (inactive)	> 12.5 µM (inactive)	> 12.5 µM (inactive)	> 12.5 µM (inactive)	11.4 µM (inactive)	> 12.5 µM (inactive)
